For one experiment, the system named is PKC-α. The experiment in a line: Western blot of PKC-α phosphorylation, ATP-activated LPS-primed J774A.1 macrophages. It counts as cell-based, murine. Conditions: compound 1h 20 μM. Here is the method:
In (A), J774A.1 macrophages (1×10^6/ml) were incubated with LPS (1 μg/ml) for 5.5 h and then incubated with compound 1 h ([…]), DPI (100 μM), or DMSO (vehicle) for 30 min followed by ATP (5 mM) stimulating for the indicated time, then ROS levels were measured by detection of the fluorescence intensity of the fluorophore carboxyl-DCF and expressed relative to those at time zero. In (B), J774A.1 macrophages (1×10^6/ml) were incubated with compound 1h (20 μM), DPI (100 μM), or DMSO (vehicle) for 30 min followed by LPS (1 μg/ml) stimulating for 5.5 h, then the cells were stimulated with ATP (5 mM) for the indicated time. The ROS levels were measured by detection of the fluorescence intensity of the fluorophore carboxyl-DCF and expressed relative to those at time zero. In (C), LPS-primed J774A.1 macrophages (1×10^6/ml) were incubated with compound 1h (20 μM) or DMSO (vehicle) for 30 min followed by ATP (5 mM) stimulating for 0-60 min, then the phosphorylation level of PKC-α was analyzed by Western blot.
Whole cell lysates were separated by SDS-PAGE and electrotransferred to a PVDF membrane. The membranes were incubated in blocking solution—5% nonfat milk in phosphate buffered saline with 0.1% Tween 20—at room temperature for 1 h. Each membrane was incubated with a specific primary antibody at room temperature for 2 h. […]
(Immunoblotting shows a protein as a band on a membrane.)

A further experiment has as its system NLRP3. The experiment in a line: Western blot of NLRP3, LPS-activated J774A.1 macrophages. It counts as cell-based, mouse. Conditions: compound 30 min, then LPS 6 h. Here is the method:
(§1) (A) J774A.1 macrophages (1×10^6/ml) and (B) peritoneal macrophages (1×10^5/ml) were incubated with compound 1h for 30 min followed by LPS (1 μg/ml) stimulating for 5.5 h, then the cells were stimulated with ATP (5 mM) for an additional 30 min. The IL-1β in the culture medium was measured by ELISA and the expression of active caspase-1 (p10) was measured by Western blot. In (C) and (D), J774A.1 macrophages (1×10^6/ml) were incubated with LPS (1 μg/ml) for 5.5 h, then cells were incubated with compound 1h for 30 min followed by stimulating with ATP (5 mM) for an additional 30 min. The IL-1β and IL-6 in the culture medium were measured by ELISA and the expression of active caspase-1 (p10) was measured by Western blot. In (E), J774A.1 macrophages (1×10^6/ml) were incubated with compound 1h for 30 min followed by LPS (1 μg/ml) stimulating for 6 h. The expression of NLRP3 and proIL-1β were measured by Western blot.
Whole cell lysates were separated by SDS-PAGE and electrotransferred to a PVDF membrane. The membranes were incubated in blocking solution—5% nonfat milk in phosphate buffered saline with 0.1% Tween 20—at room temperature for 1 h. Each membrane was incubated with a specific primary antibody at room temperature for 2 h. After washing three times in PBS with 0.1% Tween 20, the membrane was incubated with an HRP-conjugated secondary antibody directed against the primary antibody. […]

In experiment [1] the test system is NLRP3 inflammasome-mediated IL-1β secretion. The experiment in a line: IL-1β ELISA, LPS+ATP-activated J774A.1 macrophages (NLRP3 inflammasome). It counts as cell-based, mouse. On the procedure: as §1
The effects of tested samples on IL-1β, TNF-α and IL-6 production were measured by ELISA according to the manufacturer's instruction. […] Following the addition of 100 μl of stop solution to each well to stop the reaction, the absorbance of the plate was measured by a microplate reader at 450 nm wavelength.
Background: An ELISA detects its analyte on a solid surface through an enzyme-linked reagent.

The next experiment has as its system RAW 264.7 cells. Kind of experiment: AlamarBlue assay for cell viability. It counts as cell-based, murine. The conditions noted are these: Mus musculus, RAW264.7, cytotoxicity against RAW 264.7 cells, 24 h treatment. Here is the method:
RAW 264.7 cells were seeded at a density of 5000 cells in 100 μl RPMI 1640 medium with 10% heat-inactivated FBS per well in 96-well flat-bottom plates and incubated for 24 h at 37° C. in a 5% CO2 incubator. Cells were incubated with tested samples for 24 h and the AlamarBlue® assay was used to determine the cytotoxicity of the test samples. The procedure was conducted following the protocol described in the manufacture's instruction (AbD Serotec Ltd).
The aim of this study is to identify non-toxic polyenylpyrrole derivatives which can be used as anti-inflammatory agents. Compounds 1a-n were evaluated for their cytotoxicities against the murine macrophages cell line RAW 264.7 after 24 h treatment.

The subject of the next experiment is NF-κB p65. Kind of experiment: NF-κB p65 nuclear translocation ELISA, RAW 264.7 macrophages. The conditions noted are these: compound 1h 10-40 μM, LPS 20 min. Type of experiment: cell-based, murine. On the procedure: (A) RAW 264.7 macrophages (5×10^5/ml) or (B) J774A.1 macrophages (5×10^5/ml) were incubated with compound 1h or DMSO for 30 min followed by LPS (1 μg/ml) stimulating for 20 min, then the phosphorylation levels of IKK-α and IκB-α and total IκB-α protein level were analyzed by Western blot. (C) RAW 264.7 macrophages (5×10^5/ml) or (D) J774A.1 macrophages (5×10^5/ml) were incubated with compound 1h (10-40 μM) or DMSO for 30 min followed by LPS (1 μg/ml) stimulating for 20 min, then the nuclear translocation of NF-κB were analyzed by ELISA. (E) RAW-Blue™ cells (5×10^5/ml) were incubated with compound 1h (2.5-40 μM) or DMSO for 30 min followed by LPS (1 μg/ml) stimulating for 24 h, then the SEAP activity was measured by QUANTI-Blue™. […] In (C), (D), and (E), the data are expressed as the mean±SD for three separate experiments. *, **, and *** indicate a significant difference at the level of p<0.05, p<0.01, and p<0.001 respectively compared to LPS group.
Nuclear protein from RAW 264.7 and J774A.1 cells were extracted using a Nuclear Extract Kit (Active Motif) according to the manufacturer's instructions and nuclear NF-κB p65 activation quantified using an ELISA-based TransAM NF-κB kit (Active Motif, Tokyo, Japan) according to the manufacturer's protocol by reading the absorbance with a microplate absorbance reader (Bio-Rad Laboratories, Inc) at 450 nm with a reference wavelength of 655 nm.

Regarding `O=c1cc(O)cc(/C=C/C=C/C=C/C=C/c2[nH]ccc2Cl)o1` [Compound 1h], in the experiment on PKC-α, the “ATP-induced PKC-α phosphorylation” value is given as “inhibited”. For the same compound, in the experiment with NLRP3, the NLRP3 expression entry was “increased NLRP3 expression”. Also, the IL-1β secretion result is recorded as “significantly inhibited” in experiment [1] (J774A.1, compound before LPS and ATP treatment); “inhibited IL-1β secretion” in experiment [1] (LPS-primed J774A.1, compound 30 min before ATP stimulation). For the same compound, in the experiment with RAW 264.7 cells, the IC50 is over 100 µM. Also, in the experiment with NF-κB p65, the NF-κB nuclear translocation entry was “inhibited NF-κB nuclear translocation”.

The IC50 is the point on the concentration scale where inhibition reaches its midpoint. Read a low IC50 as higher potency.

These data come from patent publication US9475789B2, “Use of polyenylpyrrole derivatives for treating inflammation” (WELLHEAD BIOLOGICAL TECHNOLOGY CORP., priority 2014, dated 2016).
